System: L. major lysate proteins
Experiment: Multitargeted bead mixture chemoproteomics, single concentration competition, proteome-wide
Format: binding

With `NCCCNc1ccc(C(=O)NC(CCC(=O)O)C(=O)O)cc1` (stereo not drawn) [compound 7] the fold change (protein LMJF.35.0420 40S RIBOSOMAL PROTEIN S3A, PUTATIVE, vehicle control = 1) was 1.04, the “fold change relative to vehicle control” value (protein LMJF.35.1220, SHORT CHAIN DEHYDROGENASE, PUTATIVE) was 1.22 and the “fold change relative to vehicle control” value (protein LMJF.35.1380, MIT[…], BETA SUBUNIT, PUTATIVE) was 1.09. The “fold change vs vehicle control” value (protein LMJF.35.1830 HYPOTHETICAL PROTEIN, CONSERVED) was 0.96, the “fold change vs vehicle control” value (protein LMJF.35.3340 6-phosphogluconate dehydrogenase) was 1.02 and the fold change (protein LMJF.35.3700 GIM5A PROTEIN, PUTATIVE,GLYCOSOMAL MEMBRANE PROTEIN, vehicle control = 1) was 0.89. For the same compound, the “fold change vs vehicle control” value (protein LMJF.35.3760 60S RIBOSOMAL PROTEIN L27A/L29, PUTATIVE) was 0.84, the “fold change relative to vehicle control” value (protein LMJF.35.3840, […] 2 SUBUNIT, PUTATIVE) was 1.34 and the “fold change vs vehicle control” value (protein LMJF.35.3860 T-COMPLEX PROTEIN 1, ETA SUBUNIT, PUTATIVE) was 0.92. For the same compound, the fold change (protein LMJF.35.4420 MIT[…] TRANSPORTER, PUTATIVE, vehicle control = 1) was 1.06, the “fold change relative to vehicle control” value (protein LMJF.35.4880, HYPOTHETICAL PROTEIN, CONSERVED (TPR repeat, putative)) was 0.98 and the “fold change relative to vehicle control” value (protein LMJF.35.5330, ISOPENTENYL-D[…]-ISOMERASE, PUTATIVE) was 1.02. For the same compound, the “fold change relative to vehicle control” value (protein LMJF.36.0070, STRESS-INDUCIBLE PROTEIN STI1 HOMOLOG) was 1.21, the fold change (protein LMJF.36.0480 HY[…], CONSERVED, vehicle control = 1) was 1.01 and the “fold change vs vehicle control” value (protein LMJF.36.0620 HY[…], CONSERVED) was 1.07. For the same compound, the “fold change vs vehicle control” value (protein LMJF.36.0930 40S RIBOSOMAL PROTEIN S18, PUTATIVE) was 1.09, the “fold change vs vehicle control” value (protein LMJF.36.0990 40S RIBOSOMAL PROTEIN S10, PUTATIVE) was 1.03 and the fold change (protein LMJF.36.1140 SHORT CHAIN 3-HYDROXYACYL-COA DEHYDROGENASE, PUTATIVE, vehicle control = 1) was 0.85. For the same compound, the “fold change relative to vehicle control” value (protein LMJF.36.1260, FRUCTOSE-1,6-BI[…]) was 1.01, the fold change (protein LMJF.36.1340 N-ACETYLTRANSFERASE SUBUNIT NAT1, PUTATIVE, vehicle control = 1) was 0.79 and the “fold change vs vehicle control” value (protein LMJF.36.1650 PROTEASOME BETA 5 SUBUNIT, PUTATIVE) was 0.99. The “fold change relative to vehicle control” value (protein LMJF.36.2380, STEROL 24-C-METHYLTRANSFERASE, PUTATIVE) was 0.97, the “fold change vs vehicle control” value (protein LMJF.36.2950 SUCCINYL-COA LIGASE GDP-FORMING] BETA-CHAIN, PUTATIVE) was 1 and the “fold change vs vehicle control” value (protein LMJF.36.3210 14-3-3 PROTEIN-LIKE PROTEIN) was 0.87. The “fold change vs vehicle control” value (protein LMJF.36.3410 SHORT CHAIN DEHYDROGENASE-LIKE PROTEIN) was 1.26, the fold change (protein LMJF.36.3460 HYPOTHETICAL PROTEIN, CONSERVED (NIPSNAP, putative), vehicle control = 1) was 0.88 and the fold change (protein LMJF.36.3580 HY[…], CONSERVED (Protein of unknown function (DUF2009), putative), vehicle control = 1) was 1.12. For the same compound, the fold change (protein LMJF.36.3750 40S RIBOSOMAL PROTEIN S27-1, PUTATIVE, vehicle control = 1) was 1.02, the “fold change vs vehicle control” value (protein LMJF.36.5010 40S RIBOSOMAL PROTEIN SA, PUTATIVE) was 1.12 and the “fold change vs vehicle control” value (protein LMJF.36.5130 HY[…], CONSERVED) was 1.42. For the same compound, the “fold change vs vehicle control” value (protein LMJF.36.5150 HYPOTHETICAL PROTEIN, CONSERVED) was 0.97, the “fold change relative to vehicle control” value (protein LMJF.36.5380, NADH DEHYDROGENASE, PUTATIVE) was 1.14 and the “fold change vs vehicle control” value (protein LMJF.36.5390 PHOSPHORIBOSYLPYROPHOSPHATE SYNTHETASE, PUTATIVE) was 0.89. For the same compound, the “fold change vs vehicle control” value (protein LMJF.36.5620 ISOLEUCYL-TRNA SYNTHETASE, PUTATIVE) was 1, the fold change (protein LMJF.36.6430 PROTEIN TRANSPORT PROTEIN SEC23-LIKE PROTEIN, vehicle control = 1) was 0.89 and the “fold change vs vehicle control” value (protein LMJF.36.6760 HY[…], CONSERVED) was 1.01. The “fold change relative to vehicle control” value (protein LMJF.[…], MIT[…] BETA SUBUNIT, PUTATIVE) was 0.91, the “fold change relative to vehicle control” value (protein LMJF.[…], POLY(A) EXPORT PROTEIN, PUTATIVE) was 1.14 and the fold change (vs vehicle control, protein LINJ.20.0630 CYTIDINE TR[…], PUTATIVE,CTP SYNTHASE, PUTATIVE) was 1.04. For the same compound, the fold change (vs vehicle control, protein LINJ.20.1390 COATOMER BETA SUBUNIT, PUTATIVE) was 0.87, the fold change (vs vehicle control, protein LMJF.05.1140 VACUOLAR ATPASE SUBUNIT-LIKE PROTEIN) was 0.93 and the fold change (vs vehicle control, protein LMJF.07.1090 DELTA-5 FATTY ACID DESATURASE) was 0.92. It also gave a fold change (vs vehicle control, protein LMJF.09.0220 HYPOTHETICAL PROTEIN, CONSERVED) of 0.78, a fold change (vs vehicle control, protein LMJF.11.1030 HYPOTHETICAL PROTEIN, CONSERVED) of 0.93 and a fold change (vs vehicle control, protein LMJF.14.0640 FATTY ACID ELONGASE, PUTATIVE) of 0.8. It also gave a fold change (vs vehicle control, protein LMJF.14.0705 FATTY ACID ELONGASE, PUTATIVE) of 1.17, a fold change (vs vehicle control, protein LMJF.14.1120 KINESIN K39, PUTATIVE) of 0.6 and a fold change (vs vehicle control, protein LMJF.16.1610 PROHIBITIN) of 1.07. The fold change (vs vehicle control, protein LMJF.17.0010 HYPOTHETICAL PROTEIN, CONSERVED) was 0.87, the fold change (vs vehicle control, protein LMJF.18.1130 RAS-RELATED PROTEIN RAB-5, PUTATIVE) was 0.68 and the fold change (vs vehicle control, protein LMJF.19.1420 CYSTEINE PEPTIDASE A (CPA)) was 0.9. The fold change (vs vehicle control, protein LMJF.21.0280 HY[…], CONSERVED) was 0.94, the fold change (vs vehicle control, protein LMJF.22.1560 40S RIBOSOMAL PROTEIN L14, PUTATIVE) was 0.7 and the fold change (vs vehicle control, protein LMJF.23.1220 T-COMPLEX PROTEIN 1, GAMMA SUBUNIT, PUTATIVE) was 1.02. It also gave a fold change (vs vehicle control, protein LMJF.24.0370 ASPARTATE AMINOTRANSFERASE, PUTATIVE) of 1.01, a fold change (vs vehicle control, protein LMJF.25.1770 ENOYL-COA REDUCTASE, PUTATIVE) of 1.02 and a fold change (vs vehicle control, protein LMJF.26.0170 60S RIBOSOMAL PROTEIN L7, PUTATIVE) of 0.9. It also gave a fold change (vs vehicle control, protein LMJF.26.1550 TRI[…] ALPHA SUBUNIT, MIT[…]-LIKE PROTEIN) of 1.06, a fold change (vs vehicle control, protein LMJF.26.1610 PROLINE OXIDASE, MITOCHONDRIAL PRECURSOR-LIKE PROTEIN) of 0.83 and a fold change (vs vehicle control, protein LMJF.28.1950 X-PRO, DIPEPTIDYL-PEPTIDASE,SERINE PEPTIDASE, CLAN SC, FAMILY S15, PUTATIVE) of 1.14. The fold change (vs vehicle control, protein LMJF.31.1070 BIOTIN/LIPOATE PROTEIN LIGASE-LIKE PROTEIN) was 0.87, the fold change (vs vehicle control, protein LMJF.32.1370 HYPOTHETICAL PROTEIN, CONSERVED) was 0.91 and the fold change (vs vehicle control, protein LMJF.34.0490 IMPORTIN BETA-1 SUBUNIT, PUTATIVE) was 0.78. The fold change (vs vehicle control, protein LMJF.34.4060 UBIQUITIN HYDROLASE, PUTATIVE,CYSTEINE PEPTIDASE, CLAN CA, FAMILY C19, PUTATIVE) was 0.91, the fold change (vs vehicle control, protein LMJF.36.1600 PROTEASOME ALPHA 1 SUBUNIT, PUTATIVE) was 0.95 and the fold change (vs vehicle control, protein LMJF.[…] RIBOSOMAL PROTEIN S7, PUTATIVE) was 1.
